Data from PubChem BioAssay AID272 (DTP/NCI, 2004).
Values joined by “and” are separate entries in the source; they are usually repeats but may differ in a detail not shown here. Equal values may be shown once. Results filed as inconclusive are left out.

Test system: Lewis lung carcinoma i.m., BDF1 mice, T/C %
Test: NCI In Vivo Anticancer Drug Screen. Data for tumor model Lewis Lung Carcinoma (intramuscular) in B6D2F1 (BDF1) mice
Protocol: The antitumor activity of compounds was measured in mice bearing transplantable tumors. Survival or tumor size were measured and the results are expressed as the measurement made in the treated group (T) divided by the measurement made in the vehicle treated control group (C). The tumor model used in this assay is Lewis Lung Carcinoma (intramuscular) in B6D2F1 (BDF1) mice

[1] = endpoint: mean tumor weight (est.), dose: 2.5 mg/kg/injection, schedule: Q01DX011 (ip), vehicle: saline, higher = larger tumour

## Nc1nc(N)c2nc(CNc3ccc(C(=O)NC(CCC(=O)O)C(=O)O)cc3)cnc2n1 (stereo not drawn)
endpoint: median survival time, dose: 4.0 micrograms/kg/injection, schedule: Q01DX011 (ip), vehicle: other, higher = longer survival
  T/C: 97 % of control
endpoint: median survival time, dose: 8.0 micrograms/kg/injection, schedule: Q01DX011 (ip), vehicle: other, higher = longer survival
  T/C: 86 % of control
endpoint: median survival time, dose: 16.0 micrograms/kg/injection, schedule: Q01DX011 (ip), vehicle: other, higher = longer survival
  T/C: 100 % of control
endpoint: median survival time, dose: 32.0 micrograms/kg/injection, schedule: Q01DX011 (ip), vehicle: other, higher = longer survival
  T/C: 109 % of control
endpoint: median survival time, dose: 65.0 micrograms/kg/injection, schedule: Q01DX011 (ip), vehicle: other, higher = longer survival
  T/C: 95 % of control

## Cc1cc2c3ccc(C)[n+](C)c3ccc2n1C
endpoint: mean tumor weight (est.), dose: 0.6 mg/kg/injection, schedule: Q01DX011 (ip), vehicle: saline, higher = larger tumour
  T/C: 81 % of control
endpoint: mean tumor weight (est.), dose: 1.25 mg/kg/injection, schedule: Q01DX011 (ip), vehicle: saline, higher = larger tumour
  T/C: 59 % of control
[1]
  T/C: 110 % of control

## Cc1c2c(ccc3ccccc32)c[n+]2ccccc12
[1]
  T/C: 60 % of control
endpoint: mean tumor weight (est.), dose: 5.0 mg/kg/injection, schedule: Q01DX011 (ip), vehicle: saline, higher = larger tumour
  T/C: 112 % of control
endpoint: mean tumor weight (est.), dose: 10.0 mg/kg/injection, schedule: Q01DX011 (ip), vehicle: saline, higher = larger tumour
  T/C: 65 % of control
endpoint: median survival time, dose: 2.5 mg/kg/injection, schedule: Q01DX011 (ip), vehicle: saline, higher = longer survival
  T/C: 107 % of control
endpoint: median survival time, dose: 5.0 mg/kg/injection, schedule: Q01DX011 (ip), vehicle: saline, higher = longer survival
  T/C: 92 % of control
endpoint: median survival time, dose: 10.0 mg/kg/injection, schedule: Q01DX011 (ip), vehicle: saline, higher = longer survival
  T/C: 94 % of control

## COC(=O)C1Cc2cncn2C(=O)N1 (stereo not drawn)
endpoint: median survival time, dose: 4.0 mg/kg/injection, schedule: Q01DX009 (ip), vehicle: water, higher = longer survival
  T/C: 113 % of control
endpoint: median survival time, dose: 8.0 mg/kg/injection, schedule: Q01DX009 (ip), vehicle: water, higher = longer survival
  T/C: 108 % of control
endpoint: median survival time, dose: 16.0 mg/kg/injection, schedule: Q01DX009 (ip), vehicle: water, higher = longer survival
  T/C: 104 % of control
endpoint: median survival time, dose: 32.0 mg/kg/injection, schedule: Q01DX009 (ip), vehicle: water, higher = longer survival
  T/C: 103 % of control
endpoint: median survival time, dose: 64.0 mg/kg/injection, schedule: Q01DX009 (ip), vehicle: water, higher = longer survival
  T/C: 98 % of control

## S=c1nc[nH]c2nc[nH]c12
endpoint: mean tumor weight, dose: 10.0 mg/kg/injection, schedule: Q01DX011 (ip), vehicle: other, higher = larger tumour
  T/C: 77 % of control
endpoint: mean tumor weight, dose: 20.0 mg/kg/injection, schedule: Q01DX011 (ip), vehicle: other, higher = larger tumour
  T/C: 77 % of control
endpoint: mean tumor weight, dose: 40.0 mg/kg/injection, schedule: Q01DX011 (ip), vehicle: other, higher = larger tumour
  T/C: 89 % of control
endpoint: mean tumor weight, dose: 65.0 mg/kg/injection, schedule: Q01DX011 (ip), vehicle: other, higher = larger tumour
  T/C: 58 % of control
endpoint: median survival time, dose: 4.0 mg/kg/injection, schedule: Q01DX011 (ip), vehicle: other, higher = longer survival
  T/C: 91 % of control and 108 % of control
endpoint: median survival time, dose: 8.0 mg/kg/injection, schedule: Q01DX011 (ip), vehicle: other, higher = longer survival
  T/C: 91 % of control and 111 % of control
endpoint: median survival time, dose: 10.0 mg/kg/injection, schedule: Q01DX011 (ip), vehicle: other, higher = longer survival
  T/C: 110 % of control
endpoint: median survival time, dose: 16.0 mg/kg/injection, schedule: Q01DX011 (ip), vehicle: other, higher = longer survival
  T/C: 93 % of control
endpoint: median survival time, dose: 20.0 mg/kg/injection, schedule: Q01DX011 (ip), vehicle: other, higher = longer survival
  T/C: 112 % of control
endpoint: median survival time, dose: 32.0 mg/kg/injection, schedule: Q01DX011 (ip), vehicle: other, higher = longer survival
  T/C: 98 % of control

## Nc1n[nH]c(N)n1
endpoint: mean tumor weight, dose: 125.0 mg/kg/injection, schedule: Q03HX024 (ip), vehicle: water, higher = larger tumour
  T/C: 89 % of control
endpoint: mean tumor weight, dose: 250.0 mg/kg/injection, schedule: Q03HX024 (ip), vehicle: water, higher = larger tumour
  T/C: 81 % of control
endpoint: mean tumor weight, dose: 750.0 mg/kg/injection, schedule: Q01DX009 (ip), vehicle: water, higher = larger tumour
  T/C: 72 % of control
endpoint: mean tumor weight, dose: 750.0 mg/kg/injection, schedule: Q01DX011 (ip), vehicle: water, higher = larger tumour
  T/C: 68 % of control
endpoint: median survival time, dose: 375.0 mg/kg/injection, schedule: Q01DX009 (ip), vehicle: water, higher = longer survival
  T/C: 116 % of control
endpoint: median survival time, dose: 375.0 mg/kg/injection, schedule: Q01DX011 (ip), vehicle: water, higher = longer survival
  T/C: 110 % of control
endpoint: median survival time, dose: 750.0 mg/kg/injection, schedule: Q01DX009 (ip), vehicle: water, higher = longer survival
  T/C: 124 % of control
endpoint: median survival time, dose: 750.0 mg/kg/injection, schedule: Q01DX011 (ip), vehicle: water, higher = longer survival
  T/C: 104 % of control
endpoint: median survival time, dose: 1500.0 mg/kg/injection, schedule: Q01DX011 (ip), vehicle: water, higher = longer survival
  T/C: 124 % of control
